From ChEMBL document CHEMBL1133819, “Structure-based design of caspase-1 inhibitor containing a diphenyl ether sulfonamide” (Bioorg Med Chem Lett, 2001)

Tests used:
[1] = target: T1, Caspase-1 (Homo sapiens, UniProt P29466); assay: Binding affinity towards caspase-1 was determined
T1 sequence (P29466 whole entry): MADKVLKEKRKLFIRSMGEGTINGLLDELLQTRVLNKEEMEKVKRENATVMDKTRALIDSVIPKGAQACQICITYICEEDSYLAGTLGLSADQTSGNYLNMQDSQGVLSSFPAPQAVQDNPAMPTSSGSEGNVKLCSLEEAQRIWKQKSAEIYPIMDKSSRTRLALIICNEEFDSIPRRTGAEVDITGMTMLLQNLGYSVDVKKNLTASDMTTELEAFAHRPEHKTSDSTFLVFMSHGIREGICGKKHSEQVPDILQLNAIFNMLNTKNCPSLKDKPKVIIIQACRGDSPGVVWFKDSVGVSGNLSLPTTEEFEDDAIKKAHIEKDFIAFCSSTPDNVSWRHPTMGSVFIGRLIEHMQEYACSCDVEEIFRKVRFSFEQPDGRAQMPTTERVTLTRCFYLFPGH

[2] = target: T1, Caspase-1; assay: Inhibitory concentration against caspase-1 was determined

| SMILES | Ki [1] [nM] | IC50 [2] [nM] |
| --- | --- | --- |
| CC(C)c1cccc(Oc2ccccc2S(=O)(=O)N[C@H](C=O)C(=O)O)c1 | 410 | 3700 |
| Cc1cccc(Oc2ccccc2S(=O)(=O)N[C@H](C=O)C(=O)O)c1 | 430 | 11000 |
| CCC(C)c1ccc(Oc2ccccc2S(=O)(=O)N[C@H](C=O)C(=O)O)cc1 (some centres undefined) | 490 | 2200 |
| CCC(CC)c1ccc(Oc2ccccc2S(=O)(=O)N[C@H](C=O)C(=O)O)cc1 | 440 | 3500 |
| O=C[C@@H](NS(=O)(=O)c1ccccc1Oc1ccc(C2CCCCC2)cc1)C(=O)O | 900 | 4300 |
| O=C[C@@H](NS(=O)(=O)c1ccccc1Oc1ccc(-c2ccccc2)cc1)C(=O)O | 290 | 4400 |
| CC(C)c1ccc(Oc2ccccc2S(=O)(=O)N[C@H](C=O)C(=O)O)cc1 | 620 | 5300 |
| Cc1ccc(Oc2ccccc2S(=O)(=O)N[C@H](C=O)C(=O)O)cc1 | 1100 | 9000 |
| O=C[C@@H](NS(=O)(=O)c1ccccc1-c1ccccc1)C(=O)O | 1600 | 20000 |
| O=C[C@@H](NS(=O)(=O)c1ccccc1Oc1ccccc1)C(=O)O | 24000 | 24000 |
| O=C[C@@H](NS(=O)(=O)c1ccccc1Oc1ccc(C2CCCC2)cc1)C(=O)O | 880 | 4800 |
| Cc1cc(Oc2ccccc2S(=O)(=O)N[C@H](C=O)C(=O)O)cc(C)c1C | 450 | 7800 |
| O=C[C@@H](NS(=O)(=O)c1ccccc1Oc1ccc(-c2ccc(C(=O)O)cc2)cc1)C(=O)O | 4200 | 58000 |
| CCC(C)c1ccc(Oc2ccccc2S(=O)(=O)N[C@H](C=O)C(=O)O)cc1C (some centres undefined) | 100 | 1000 |
| Cc1cccc(Oc2ccccc2S(=O)(=O)N[C@H](C=O)C(=O)O)c1C | 1000 | 13000 |
| Cc1ccccc1Oc1ccccc1S(=O)(=O)N[C@H](C=O)C(=O)O | 3000 | 14000 |
| Cc1cc(Oc2ccccc2S(=O)(=O)N[C@H](C=O)C(=O)O)ccc1C(C)C | 110 | 1000 |
